Measured values from the NIST ThermoML archive (doi:10.1016/j.fluid.2007.08.010).
Numbers after ± are expanded uncertainties.

Test: xn = mol fraction of the nth substance listed
Details: Liquid, Falling or rolling sphere viscometry

CCCCCCCCCCCCCC [tetradecane] + c1ccccc1
viscosity [mPa·s]
Details	690 kPa	5000 kPa	10000 kPa	20000 kPa	30000 kPa	40000 kPa	50000 kPa	60000 kPa
313.2 K, x2 = 0.179	1.393 ± 0.057	1.461 ± 0.06	1.538 ± 0.063	1.695 ± 0.069	1.86 ± 0.076	2.036 ± 0.083	2.224 ± 0.091	2.434 ± 0.1
313.2 K, x2 = 0.436	1.103 ± 0.045	1.159 ± 0.047	1.223 ± 0.05	1.347 ± 0.055	1.473 ± 0.06	1.6 ± 0.065	1.729 ± 0.071	1.866 ± 0.076
313.2 K, x2 = 0.602	0.905 ± 0.037	0.955 ± 0.039	1.011 ± 0.041	1.118 ± 0.046	1.225 ± 0.05	1.329 ± 0.054	1.432 ± 0.058	1.535 ± 0.063
313.2 K, x2 = 0.798	0.679 ± 0.028	0.712 ± 0.029	0.753 ± 0.031	0.835 ± 0.034	0.916 ± 0.037	1 ± 0.041	1.081 ± 0.044	1.16 ± 0.047
333.2 K, x2 = 0.179	1.045 ± 0.043	1.098 ± 0.045	1.157 ± 0.047	1.273 ± 0.052	1.389 ± 0.057	1.515 ± 0.062	1.657 ± 0.068	1.846 ± 0.076
333.2 K, x2 = 0.436	0.838 ± 0.034	0.884 ± 0.036	0.935 ± 0.038	1.037 ± 0.042	1.135 ± 0.046	1.228 ± 0.05	1.319 ± 0.054	1.421 ± 0.058
333.2 K, x2 = 0.602	0.688 ± 0.028	0.728 ± 0.03	0.775 ± 0.032	0.862 ± 0.035	0.946 ± 0.039	1.032 ± 0.042	1.115 ± 0.045	1.216 ± 0.05
333.2 K, x2 = 0.798	0.528 ± 0.022	0.557 ± 0.023	0.592 ± 0.024	0.661 ± 0.027	0.73 ± 0.03	0.797 ± 0.032	0.863 ± 0.035	0.927 ± 0.038
353.2 K, x2 = 0.179	0.819 ± 0.034	0.855 ± 0.035	0.904 ± 0.037	0.996 ± 0.041	1.08 ± 0.044	1.168 ± 0.048	1.278 ± 0.052	1.391 ± 0.057
353.2 K, x2 = 0.436	0.614 ± 0.025	0.662 ± 0.027	0.705 ± 0.029	0.793 ± 0.032	0.883 ± 0.036	0.956 ± 0.039	1.032 ± 0.042	1.116 ± 0.046
353.2 K, x2 = 0.602	0.537 ± 0.022	0.566 ± 0.023	0.601 ± 0.025	0.668 ± 0.027	0.739 ± 0.03	0.809 ± 0.033	0.878 ± 0.036	0.959 ± 0.039
353.2 K, x2 = 0.798	0.421 ± 0.017	0.443 ± 0.018	0.469 ± 0.019	0.523 ± 0.021	0.578 ± 0.024	0.634 ± 0.026	0.69 ± 0.028	0.745 ± 0.03
373.2 K, x2 = 0.179	0.596 ± 0.024	0.635 ± 0.026	0.678 ± 0.028	0.765 ± 0.031	0.849 ± 0.035	0.926 ± 0.038	1.001 ± 0.041	1.07 ± 0.044
373.2 K, x2 = 0.436	0.485 ± 0.02	0.515 ± 0.021	0.549 ± 0.022	0.62 ± 0.025	0.688 ± 0.028	0.753 ± 0.031	0.819 ± 0.033	0.879 ± 0.036
373.2 K, x2 = 0.602	0.43 ± 0.018	0.452 ± 0.018	0.477 ± 0.019	0.533 ± 0.022	0.59 ± 0.024	0.646 ± 0.026	0.704 ± 0.029	0.761 ± 0.031
373.2 K, x2 = 0.798	0.356 ± 0.015	0.371 ± 0.015	0.389 ± 0.016	0.427 ± 0.017	0.467 ± 0.019	0.509 ± 0.021	0.553 ± 0.023	0.598 ± 0.024
393.2 K, x2 = 0.179	0.466 ± 0.019	0.495 ± 0.02	0.531 ± 0.022	0.601 ± 0.025	0.67 ± 0.027	0.738 ± 0.03	0.804 ± 0.033	0.868 ± 0.036
393.2 K, x2 = 0.436	0.394 ± 0.016	0.419 ± 0.017	0.445 ± 0.018	0.496 ± 0.02	0.554 ± 0.023	0.61 ± 0.025	0.662 ± 0.027	0.717 ± 0.029
393.2 K, x2 = 0.602	0.347 ± 0.014	0.368 ± 0.015	0.39 ± 0.016	0.436 ± 0.018	0.479 ± 0.02	0.524 ± 0.021	0.565 ± 0.023	0.604 ± 0.025
393.2 K, x2 = 0.798	0.307 ± 0.013	0.32 ± 0.013	0.336 ± 0.014	0.367 ± 0.015	0.398 ± 0.016	0.432 ± 0.018	0.466 ± 0.019	0.499 ± 0.02
